Data taken from patent US8846745B2, “Use of an indazolemethoxyalkanoic acid for reducing triglyceride, cholesterol and glucose levels” (Aziende Chimiche Riunite Angelini Francesco A.C.R.A.F. …, priority 2006, dated 2014).

Experiments:
[1] = tested on: obese Zucker rats (fa/fa); details: standard rodent diet supplemented with 0.5% bindarit, blood at 6, 16, 28 and 40 weeks old
Protocol: The activity of bindarit was tested in an experimental model in rats.
The study was performed on rats 5 weeks old on arrival, of the Zucker strain homozygous for the “fa” allele (fa/fa), insulin-resistant, hyperinsulinaemic and obese, and on rats of the same age of the heterozygous Zucker control strain (fa/+), phenotypically normal, insulin-sensitive and slim.
At six weeks old, the obese Zucker rats were divided into two groups, one of which was fed with a standard rodent diet, and the other with a standard rodent diet supplemented with 0.5% bindarit.
The slim Zucker rats of the same age were used as controls and fed with a standard rodent diet.
Blood samples were taken from the animals periodically (at 6, 16, 28 and 40 weeks old) for enzymatic measurement of the circulating levels of triglycerides, cholesterol and glucose.

[2] = tested on: IL-12; details: human monocytes, LPS 100 ng/ml for 4 hours, bindarit 300 μM tested as sodium salt
Protocol: The capacity of bindarit to inhibit the expression of IL-12 by human monocytes stimulated with lipopolysaccharide (LPS) was evaluated.
Human monocytes were used, which were isolated from healthy donors by centrifugation on a Ficoll gradient and purified by two successive centrifugation steps, followed by a step of isolation by means of an immunomagnetic system of negative cell separation (MACS, Miltenyi Biotech), using specific antibodies.
The cells were stimulated with LPS (100 ng/ml) for 4 hours in the presence or absence of bindarit (300 μM). The product was tested in the form of the sodium salt obtained by salification with equimolar sodium hydroxide and subsequent dilution in the medium used. The total RNA was extracted from cells using TRizol (Invitrogen Life Technologies) according to manufacturer's instructions, reverse-transcribed and prepared by GeneChip hybridization.

## CC(C)(OCc1nn(Cc2ccccc2)c2ccccc12)C(=O)O [bindarit]
[1]
  circulating levels of cholesterol: significant reduction
  circulating levels of triglycerides: significant reduction
  glycaemia (circulating glucose): significant reduction
[2]
  reduction of the levels of LPS-induced IL-12 specific mRNA: about 100 fold
